Test results as given in ChEMBL document CHEMBL6087458, “The Discovery of a Novel AXL/Triple Angiokinase Inhibitor Based on 6-Chloro-Substituted Indolinone and Side Chain Methyl Substitution Inhibiting Pancreatic Cancer Growth and Metastasis” (J Med Chem, 2025).
The source made the active and inactive calls. The calls are words filed in the database; no cut-off is given here.

What was measured:
[1] = test system: Osimertinib-resistant NCI-H1975 cell; test: cells; settings: Homo sapiens, 72 h
[2] = test system: MDA-MB-231; test: cells; settings: Homo sapiens, MDA-MB-231, 72 h
Description: Antiproliferative activity against human MDA-MB-231 cells assessed as cell viability incubated for 72 hrs by MTT assay

[3] = test system: MDA-MB-231; test: Effect on STAT3 level in human MDA-MB-231 cells incubated for 24 to 72 hrs by Western blot analysis; assay type: functional, cell-based; settings: time 24-72 hrs
[4] = test system: BXPC-3; test: Effect on STAT3 level in human BXPC-3 cells incubated for 24 to 72 hrs by Western blot analysis; assay type: functional, cell-based; settings: time 24-72 hrs
[5] = biological target: Fibroblast growth factor receptor (Homo sapiens) (UniProt P22607+P11362+P22455+P21802); test: Inhibition of FGFR (unknown origin) by envision reader analysis; assay type: protein assay
Fibroblast growth factor receptor (Homo sapiens), sequence (P11362 whole entry, looked up): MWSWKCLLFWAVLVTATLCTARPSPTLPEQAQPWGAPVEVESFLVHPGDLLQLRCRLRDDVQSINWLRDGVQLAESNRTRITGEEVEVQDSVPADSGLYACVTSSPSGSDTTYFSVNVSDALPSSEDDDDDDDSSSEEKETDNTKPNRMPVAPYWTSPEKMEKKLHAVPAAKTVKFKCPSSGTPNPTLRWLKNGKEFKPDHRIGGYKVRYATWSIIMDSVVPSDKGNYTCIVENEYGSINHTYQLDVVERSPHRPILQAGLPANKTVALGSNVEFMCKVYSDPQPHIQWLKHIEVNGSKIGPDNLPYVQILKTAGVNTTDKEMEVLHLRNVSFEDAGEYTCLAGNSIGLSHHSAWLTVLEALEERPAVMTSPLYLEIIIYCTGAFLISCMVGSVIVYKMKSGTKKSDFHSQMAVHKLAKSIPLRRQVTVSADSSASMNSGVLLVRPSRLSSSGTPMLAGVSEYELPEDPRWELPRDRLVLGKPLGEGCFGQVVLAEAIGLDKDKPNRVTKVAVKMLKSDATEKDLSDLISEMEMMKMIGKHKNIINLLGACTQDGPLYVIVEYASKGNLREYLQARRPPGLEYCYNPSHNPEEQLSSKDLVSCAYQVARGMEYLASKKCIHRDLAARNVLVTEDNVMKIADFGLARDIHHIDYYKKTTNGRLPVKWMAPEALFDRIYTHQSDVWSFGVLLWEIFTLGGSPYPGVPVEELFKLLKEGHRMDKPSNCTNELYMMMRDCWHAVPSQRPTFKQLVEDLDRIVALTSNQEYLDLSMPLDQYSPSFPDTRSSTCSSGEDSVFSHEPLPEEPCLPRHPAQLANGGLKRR
Fibroblast growth factor receptor (Homo sapiens), sequence (P21802 whole entry, looked up): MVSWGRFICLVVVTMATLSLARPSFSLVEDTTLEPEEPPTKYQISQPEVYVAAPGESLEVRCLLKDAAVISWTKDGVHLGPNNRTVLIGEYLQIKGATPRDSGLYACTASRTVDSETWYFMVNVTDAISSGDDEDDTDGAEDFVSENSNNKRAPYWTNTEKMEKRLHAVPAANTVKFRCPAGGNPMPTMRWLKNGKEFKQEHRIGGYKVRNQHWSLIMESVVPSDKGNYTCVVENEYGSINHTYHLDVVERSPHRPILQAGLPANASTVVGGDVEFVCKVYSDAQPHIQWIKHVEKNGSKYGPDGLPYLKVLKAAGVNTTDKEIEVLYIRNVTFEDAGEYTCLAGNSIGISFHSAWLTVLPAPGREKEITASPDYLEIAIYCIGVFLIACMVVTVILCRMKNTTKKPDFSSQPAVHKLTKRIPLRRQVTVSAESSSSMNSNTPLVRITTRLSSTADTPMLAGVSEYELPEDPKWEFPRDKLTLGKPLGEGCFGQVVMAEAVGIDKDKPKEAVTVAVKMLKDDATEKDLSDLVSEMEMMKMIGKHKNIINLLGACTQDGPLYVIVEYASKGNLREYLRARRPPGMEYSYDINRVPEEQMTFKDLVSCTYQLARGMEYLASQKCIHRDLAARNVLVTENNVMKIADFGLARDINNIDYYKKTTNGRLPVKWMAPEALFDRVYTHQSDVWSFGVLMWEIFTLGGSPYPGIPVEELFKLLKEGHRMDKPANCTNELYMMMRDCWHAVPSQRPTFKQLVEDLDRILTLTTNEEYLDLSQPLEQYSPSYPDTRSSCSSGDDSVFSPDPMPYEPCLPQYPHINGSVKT
Fibroblast growth factor receptor (Homo sapiens), sequence (P22455 whole entry, looked up): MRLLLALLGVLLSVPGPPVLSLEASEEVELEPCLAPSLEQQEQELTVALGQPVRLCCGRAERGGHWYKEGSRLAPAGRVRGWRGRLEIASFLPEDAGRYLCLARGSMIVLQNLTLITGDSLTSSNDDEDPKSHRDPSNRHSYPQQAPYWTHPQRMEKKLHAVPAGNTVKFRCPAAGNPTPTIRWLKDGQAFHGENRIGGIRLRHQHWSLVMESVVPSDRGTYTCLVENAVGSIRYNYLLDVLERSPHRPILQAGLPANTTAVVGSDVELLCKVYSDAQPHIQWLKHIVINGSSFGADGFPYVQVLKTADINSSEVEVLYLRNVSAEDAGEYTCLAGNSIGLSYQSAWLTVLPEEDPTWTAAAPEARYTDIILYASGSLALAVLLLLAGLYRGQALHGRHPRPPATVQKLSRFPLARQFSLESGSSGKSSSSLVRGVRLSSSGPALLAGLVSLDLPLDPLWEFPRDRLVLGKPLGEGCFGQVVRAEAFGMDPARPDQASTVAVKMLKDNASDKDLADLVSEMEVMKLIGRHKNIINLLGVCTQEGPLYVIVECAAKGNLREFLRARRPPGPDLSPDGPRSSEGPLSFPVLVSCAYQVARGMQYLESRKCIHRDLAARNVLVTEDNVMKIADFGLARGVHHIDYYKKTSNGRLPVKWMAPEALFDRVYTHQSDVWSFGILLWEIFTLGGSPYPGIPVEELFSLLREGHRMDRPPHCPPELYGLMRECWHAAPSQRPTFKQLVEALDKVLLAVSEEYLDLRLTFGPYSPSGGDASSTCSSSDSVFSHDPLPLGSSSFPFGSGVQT
Fibroblast growth factor receptor (Homo sapiens), sequence (P22607 whole entry, looked up): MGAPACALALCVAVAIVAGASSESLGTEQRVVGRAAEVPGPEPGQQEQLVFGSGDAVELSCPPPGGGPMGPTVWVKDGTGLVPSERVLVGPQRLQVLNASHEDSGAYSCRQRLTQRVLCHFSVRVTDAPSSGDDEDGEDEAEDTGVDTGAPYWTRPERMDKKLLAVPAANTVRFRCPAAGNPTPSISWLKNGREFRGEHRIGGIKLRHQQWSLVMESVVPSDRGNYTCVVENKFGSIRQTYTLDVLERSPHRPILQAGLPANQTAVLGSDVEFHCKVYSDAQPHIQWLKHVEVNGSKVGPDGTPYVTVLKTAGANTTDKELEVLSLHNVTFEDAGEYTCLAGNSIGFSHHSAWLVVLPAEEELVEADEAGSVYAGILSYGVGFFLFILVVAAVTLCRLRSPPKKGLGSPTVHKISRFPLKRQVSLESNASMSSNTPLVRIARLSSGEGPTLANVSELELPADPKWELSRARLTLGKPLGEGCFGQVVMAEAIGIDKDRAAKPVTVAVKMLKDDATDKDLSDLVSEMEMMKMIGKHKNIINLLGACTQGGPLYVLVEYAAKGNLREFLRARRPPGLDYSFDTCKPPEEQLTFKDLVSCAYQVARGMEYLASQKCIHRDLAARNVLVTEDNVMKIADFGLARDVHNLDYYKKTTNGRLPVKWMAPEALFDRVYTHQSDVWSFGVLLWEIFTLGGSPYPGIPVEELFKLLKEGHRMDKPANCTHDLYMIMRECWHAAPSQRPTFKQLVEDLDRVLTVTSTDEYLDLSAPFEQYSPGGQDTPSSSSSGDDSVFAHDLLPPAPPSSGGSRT

[6] = test system: HUVEC; test: Anti-angiogenesis activity in HUVEC assessed as reduction in number of vascular nodes at 0.5 to 2 uM incubated for 24 hrs by Calcein AM staining based light microscopic analysis; assay type: functional, cell-based; settings: Homo sapiens, dose 0.5-2 µM
[7] = test system: HUVEC; test: Inhibition of VEGFR phosphorylation in HUVEC cells at 0.5 to 2 uM incubated for 24 hrs by Western blot assay; assay type: cell-based; settings: Homo sapiens, dose 0.5-2 µM
[8] = test system: Mitochondrial membrane; test: Induction of mitochondrial membrane potential depolarization in human MDA-MB-231 cells at 0.2 to 0.5 uM incubated for 24 hrs by JC-1 staining based flow cytometry analysis; assay type: cell membranes; settings: dose 0.2-0.5 µM
[9] = Toxicity in mouse implanted with human BXPC-3 cells assessed as spleen damage at 50 mg/kg, po by H and E staining based analysis; assay type: organism-based; settings: in vivo
[10] = test system: MDA-MB-231; test: Induction of apoptosis in human MDA-MB-231 cells assessed as increase in BAX expression at 0.1 to 1 uM incubated for 24 hrs by Western blot analysis; assay type: functional, cell-based; settings: dose 0.1-1 µM
[11] = Toxicity in mouse implanted with human BXPC-3 cells assessed as heart damage at 50 mg/kg, po by H and E staining based analysis; assay type: organism-based; settings: in vivo
[12] = test system: MDA-MB-231; test: Induction of apoptosis in human MDA-MB-231 cells assessed as decrease in Bcl-2 expression at 0.1 to 1 uM incubated for 24 hrs by Western blot analysis; assay type: functional, cell-based; settings: dose 0.1-1 µM
[13] = test system: HUVEC; test: Inhibition of cell migration in human HUVEC cells assessed as decrease in migrating cells at 0.5 uM incubated for 24 hrs by wound healing assay; assay type: functional, cell-based
[14] = Antiproliferative activity against human HUVEC cells cultured as 3D tumor spheroids assessed as cell viability incubated for 72 hrs by CCK-8 assay; assay type: toxicity, cell-based
[15] = biological target: Serine/threonine-protein kinase SIK2 (Homo sapiens) (UniProt Q9H0K1); test: Inhibition of QIK (unknown origin) by envision reader analysis
Serine/threonine-protein kinase SIK2 (Homo sapiens), sequence (Q9H0K1 whole entry, looked up): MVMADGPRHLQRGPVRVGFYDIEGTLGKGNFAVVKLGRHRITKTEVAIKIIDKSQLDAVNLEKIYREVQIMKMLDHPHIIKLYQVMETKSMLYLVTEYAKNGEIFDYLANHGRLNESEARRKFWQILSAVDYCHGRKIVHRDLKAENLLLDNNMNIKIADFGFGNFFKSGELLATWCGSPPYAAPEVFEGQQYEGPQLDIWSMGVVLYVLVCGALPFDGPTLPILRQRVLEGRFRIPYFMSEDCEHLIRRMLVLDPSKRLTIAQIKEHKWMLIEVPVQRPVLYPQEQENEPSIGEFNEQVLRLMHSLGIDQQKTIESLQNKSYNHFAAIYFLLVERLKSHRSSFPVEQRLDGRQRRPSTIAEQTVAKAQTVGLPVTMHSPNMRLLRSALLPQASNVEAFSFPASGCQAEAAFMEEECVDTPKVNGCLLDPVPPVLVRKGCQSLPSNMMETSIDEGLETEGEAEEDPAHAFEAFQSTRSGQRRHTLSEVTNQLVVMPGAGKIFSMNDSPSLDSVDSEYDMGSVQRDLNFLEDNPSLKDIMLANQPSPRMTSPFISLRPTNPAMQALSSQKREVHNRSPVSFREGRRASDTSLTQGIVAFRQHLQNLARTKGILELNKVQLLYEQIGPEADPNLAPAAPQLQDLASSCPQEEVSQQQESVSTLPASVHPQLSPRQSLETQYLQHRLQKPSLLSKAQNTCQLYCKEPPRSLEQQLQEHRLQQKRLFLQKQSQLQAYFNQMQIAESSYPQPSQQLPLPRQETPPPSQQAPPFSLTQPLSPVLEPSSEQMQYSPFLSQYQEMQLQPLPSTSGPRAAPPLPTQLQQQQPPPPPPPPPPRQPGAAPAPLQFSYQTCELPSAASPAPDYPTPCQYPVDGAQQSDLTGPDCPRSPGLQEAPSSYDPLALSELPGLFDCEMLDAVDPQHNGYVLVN

[16] = biological target: Signal transducer and activator of transcription 3 (Homo sapiens) (UniProt P40763); test: Inhibition of STAT3 phosphorylation in human BXPC-3 cells incubated for 24 to 72 hrs by Western blot analysis; assay type: cell-based; settings: dose <= 5.0 µM, time 24-72 hrs
Signal transducer and activator of transcription 3 (Homo sapiens), sequence (P40763 whole entry): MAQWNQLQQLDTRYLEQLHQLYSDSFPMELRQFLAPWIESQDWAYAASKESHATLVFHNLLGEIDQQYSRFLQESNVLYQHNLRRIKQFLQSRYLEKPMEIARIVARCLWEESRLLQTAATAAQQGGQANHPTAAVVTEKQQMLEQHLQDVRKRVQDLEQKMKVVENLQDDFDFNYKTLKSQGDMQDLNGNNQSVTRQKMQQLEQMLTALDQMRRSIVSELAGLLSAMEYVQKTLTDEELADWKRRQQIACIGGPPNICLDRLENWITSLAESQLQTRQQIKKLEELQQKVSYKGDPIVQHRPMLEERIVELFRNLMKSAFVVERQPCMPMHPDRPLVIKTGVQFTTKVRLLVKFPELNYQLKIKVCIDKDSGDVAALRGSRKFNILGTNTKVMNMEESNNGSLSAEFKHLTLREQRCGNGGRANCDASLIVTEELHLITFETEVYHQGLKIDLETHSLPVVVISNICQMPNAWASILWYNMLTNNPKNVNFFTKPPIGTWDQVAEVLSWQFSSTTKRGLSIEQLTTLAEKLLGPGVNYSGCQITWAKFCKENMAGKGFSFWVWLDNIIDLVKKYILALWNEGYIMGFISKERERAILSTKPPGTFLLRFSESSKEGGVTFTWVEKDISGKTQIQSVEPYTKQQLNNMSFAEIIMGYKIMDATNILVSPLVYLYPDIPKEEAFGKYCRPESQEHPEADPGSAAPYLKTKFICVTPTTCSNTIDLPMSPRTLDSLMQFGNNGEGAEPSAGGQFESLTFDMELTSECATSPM

[17] = test system: BXPC-3; test: Inhibition of colony formation in human BXPC-3 cells at 0.5 uM incubated for 72 hrs; assay type: functional, cell-based
[18] = Oral bioavailability in Sprague-Dawley rat at 50 mg/kg; assay type: ADME, organism-based; settings: Sprague-Dawley, in vivo
[19] = Half life in Sprague-Dawley rat at 50 mg/kg, po; assay type: ADME, organism-based; settings: in vivo
[20] = biological target: Vascular endothelial growth factor receptor 2 (Homo sapiens, UniProt P35968); test: Inhibition of KDR (unknown origin) by envision reader analysis
[21] = test system: SW480; test: cells; settings: Homo sapiens, SW480, 72 h
Description: Antiproliferative activity against human SW480 cells assessed as cell viability incubated for 72 hrs by MTT assay

[22] = Cytotoxicity against mouse NIH/3T3 cells assessed as cell viability incubated for 72 hrs by MTT assay; assay type: toxicity, cell-based, NIH3T3
[23] = test system: Mitochondrial membrane; test: Induction of mitochondrial membrane potential in mouse NIH/3T3 cells assessed as increase in green fluorescence intensity incubated for 48 hrs by JC-1 staining based flow cytometry; assay type: cell membranes
[24] = test system: BXPC-3; test: Antitumor activity against human BXPC-3 cells xenografted in mouse assessed as tumor growth inhibition at 50 mg/kg, po administered for 14 days; assay type: functional; settings: BXPC-3, 336 h, time 14 day, read-out: TGI
[25] = cells; settings: Homo sapiens, CDDP-resistant A549 cell, 72 h
Description: Antiproliferative activity against human CDDP-resistant A549 cell assessed as cell viability incubated for 72 hrs by MTT assay

[26] = Cytotoxicity against human HUVEC cells assessed as cell viability incubated for 72 hrs by MTT assay; assay type: toxicity, cell-based
[27] = test system: NIH3T3; test: Antiproliferative activity against mouse NIH/3T3 cells cultured as 3D tumor spheroids assessed as reduction in pseudopodia on cell surface; assay type: functional, cell-based
[28] = test system: MDA-MB-231; test: Effect on E-cadherin expression in TGF-beta induced human MDA-MB-231 cells at 0.1 to 0.5 uM incubated for 24 hrs by immunofluorescence assay; assay type: functional, cell-based; settings: dose 0.1-0.5 µM
[29] = test system: BXPC-3; test: Antitumor activity against human BXPC-3 cells xenografted in mouse assessed as reduction in tumor weight at 50 mg/kg, po administered for 14 days; assay type: functional; set-up: scale not given: the % may be the effect or the level left; settings: time 14 day
[30] = test system: HUVEC; test: Effect on VEGFR expression in HUVEC cells at 0.5 to 2 uM incubated for 24 to 72 hrs by immunofluorescence assay; assay type: functional, cell-based; settings: Homo sapiens, dose 0.5-2 µM, time 24-72 hrs
[31] = Clearance in Sprague-Dawley rat at 5 mg/kg, iv; assay type: ADME, organism-based; settings: in vivo
[32] = test system: BXPC-3; test: Antitumor activity against human BXPC-3 cells xenografted in mouse assessed as reduction in Ki67 expression in tumor at 25 to 50 mg/kg, po administered for 14 days; assay type: functional, organism-based; settings: dose 25-50 mg/kg, time 14.0 day
[33] = test system: BXPC-3; test: Antitumor activity against human BXPC-3 cells xenografted in mouse assessed as effect on E-cadherin expression in tumor at 25 to 50 mg/kg, po administered for 14 days; assay type: functional, organism-based; settings: dose 25-50 mg/kg, time 14.0 day
[34] = test system: BXPC-3; test: cells; settings: Homo sapiens, BXPC-3, 72 h
Description: Antiproliferative activity against human BXPC-3 cells assessed as cell viability incubated for 72 hrs by MTT assay

[35] = test system: BXPC-3; test: Antiproliferative activity against human BXPC-3 cells cultured as 3D tumor spheroids assessed as cell viability incubated for 7 days by CCK-8 assay; settings: BXPC-3, 168 h
[36] = test system: BXPC-3; test: Effect on E-cadherin expression in TGF-beta induced human BXPC-3 cells at 0.1 to 0.5 uM incubated for 24 hrs by immunofluorescence assay; assay type: functional, cell-based; settings: dose 0.1-0.5 µM
[37] = test system: MKN-45; test: cells; settings: Homo sapiens, MKN-45, 72 h
Description: Antiproliferative activity against human MKN-45 cells assessed as cell viability incubated for 72 hrs by MTT assay

[38] = species: Homo sapiens; test: Inhibition of SRC (unknown origin) by envision reader analysis
[39] = Antiproliferative activity against mouse NIH/3T3 cells cultured as 3D tumor spheroids assessed as cell viability incubated for 72 hrs by CCK-8 assay; assay type: toxicity, cell-based, NIH3T3
[40] = test system: MDA-MB-231; test: Inhibition of colony formation in human MDA-MB-231 cells at 0.5 uM incubated for 72 hrs; assay type: functional, cell-based
[41] = Cmax in Sprague-Dawley rat at 50 mg/kg, po; assay type: ADME, organism-based; settings: in vivo
[42] = test system: Mitochondrial membrane; test: Induction of mitochondrial membrane potential depolarization in human BXPC-3 cells at 0.2 to 0.5 uM incubated for 24 hrs by JC-1 staining based flow cytometry analysis; assay type: cell membranes; settings: dose 0.2-0.5 µM

Question: Which IC50 [1] does the source give for `CCN1CCN(C(C)C(=O)N(C)c2ccc(N/C(=C3\C(=O)Nc4cc(Cl)ccc43)c3ccccc3)cc2)CC1` (racemic) here?
Answer: 1120 nM

Question: What about the IC50 [2] of the same molecule?
Answer: 1160 nM

Question: What about the Activity [3] of the same molecule?
Answer: inactive

Question: What about the Activity [4] of the same molecule?
Answer: Active

Question: What about the inhibition [5] of the same molecule?
Answer: Active

Question: What about the Activity [6] of the same molecule?
Answer: Active

Question: And the inhibition [7]?
Answer: Active

Question: And the Activity [8]?
Answer: Active

Question: And the Activity [9]?
Answer: Non-toxic

Question: What about the Activity [10] of the same molecule?
Answer: Active

Question: And the Activity [11]?
Answer: Non-toxic

Question: What about the Activity [12] of the same molecule?
Answer: Active

Question: And the inhibition [13]?
Answer: Active

Question: And the IC50 at 72 h [14]?
Answer: 1540 nM

Question: And the inhibition [15]?
Answer: Active

Question: And the inhibition [16]?
Answer: Dose-dependent-effect

Question: And the inhibition [17]?
Answer: Active

Question: And the bioavailability [18]?
Answer: 6.53%

Question: And the half-life [19]?
Answer: 18.8 h

Question: What about the IC50 [20] of the same molecule?
Answer: 1.52 nM

Question: What about the IC50 [21] of the same molecule?
Answer: 5910 nM

Question: And the IC50 at 72 h [22]?
Answer: 1140 nM

Question: And the Activity [23]?
Answer: Active

Question: And the inhibition in vivo at 50 mg/kg [24]?
Answer: 83%

Question: What about the IC50 [25] of the same molecule?
Answer: 5400 nM

Question: What about the IC50 at 72 h [26] of the same molecule?
Answer: 430 nM

Question: What about the Activity [27] of the same molecule?
Answer: Active

Question: What about the Activity [28] of the same molecule?
Answer: Active

Question: What about the Activity [29] of the same molecule?
Answer: 56.46%

Question: What about the Activity [30] of the same molecule?
Answer: Active

Question: What about the clearance [31] of the same molecule?
Answer: 46.5 mL/min/kg

Question: What about the AC30 [32] of the same molecule?
Answer: Active

Question: What about the Activity [33] of the same molecule?
Answer: Active

Question: What about the IC50 [34] of the same molecule?
Answer: 1010 nM

Question: And the IC50 [35]?
Answer: 1620 nM

Question: What about the Activity [36] of the same molecule?
Answer: Active

Question: What about the IC50 [37] of the same molecule?
Answer: 1260 nM

Question: And the inhibition [38]?
Answer: Active

Question: What about the IC50 at 72 h [39] of the same molecule?
Answer: 2310 nM

Question: What about the inhibition [40] of the same molecule?
Answer: Active

Question: What about the Cmax [41] of the same molecule?
Answer: 88 ng/mL

Question: And the Activity [42]?
Answer: Active
